ChEMBL document CHEMBL1201862, “PubChem BioAssay data set” (2004)
Activity calls are given as the source filed them. Cut-off read from the data, not from the text of the source, for most assays here: actives have a measured EC50 and inactives only a lower limit.

Assays:
[1] = cytotoxicity toward NIH3T3 fibroblasts, dose response, counter-screen, cell-based, ATP luminescence, mouse fibroblasts (AID 2010); assay type: functional;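 note: cells exposed to compound for about 90 hours before reading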
[2] = inhibitors of intracellular T. cruzi replication, confirmation, NIH3T3 host cells, beta-gal luminescence (AID 2044); assay type: functional, cell-based;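 note: intracellular parasites grown in NIH/3T3 mouse fibroblasts as host cells; luminescent beta-galactosidase reporter signal from transgenic T. cruzi replicating inside host cells; inhibitors lower the luminescence signal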
[3] = target: Cytochrome P450 2D6 (Homo sapiens, UniProt P10635);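 note: CYP2D6 member of a cytochrome P450 panel assay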
[4] = target: T1, Corticotropin-releasing factor receptor 2/Corticotropin-releasing factor-binding protein (Homo sapiens, UniProt P24387+Q13324); assay: activators of CRF receptor 2 with binding protein – uHTS hits, confirmation (AID 602473); assay type: functional; conditions: read-out: EC50_Mean
T1 sequence (Q13324 whole entry): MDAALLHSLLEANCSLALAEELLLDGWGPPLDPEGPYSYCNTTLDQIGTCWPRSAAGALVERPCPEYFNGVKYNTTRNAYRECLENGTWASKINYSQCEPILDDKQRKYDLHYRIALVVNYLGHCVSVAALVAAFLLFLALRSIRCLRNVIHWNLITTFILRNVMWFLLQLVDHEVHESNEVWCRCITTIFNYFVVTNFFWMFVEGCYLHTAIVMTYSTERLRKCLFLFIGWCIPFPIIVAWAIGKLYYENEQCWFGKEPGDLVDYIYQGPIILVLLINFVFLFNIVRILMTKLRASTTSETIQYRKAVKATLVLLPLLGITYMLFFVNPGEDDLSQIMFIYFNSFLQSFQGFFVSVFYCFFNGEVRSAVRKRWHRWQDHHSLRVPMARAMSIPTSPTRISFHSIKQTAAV
T1 sequence (P24387 whole entry): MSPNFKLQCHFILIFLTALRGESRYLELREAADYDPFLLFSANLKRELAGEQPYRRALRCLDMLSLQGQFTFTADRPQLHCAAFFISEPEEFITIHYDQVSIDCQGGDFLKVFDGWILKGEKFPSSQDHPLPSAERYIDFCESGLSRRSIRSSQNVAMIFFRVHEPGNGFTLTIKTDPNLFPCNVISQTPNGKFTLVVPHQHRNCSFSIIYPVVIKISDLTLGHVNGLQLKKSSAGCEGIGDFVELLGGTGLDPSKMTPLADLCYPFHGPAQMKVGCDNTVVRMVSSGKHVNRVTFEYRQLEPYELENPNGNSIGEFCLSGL

[5] = target: Large T antigen (Simian virus 40, UniProt P03070); assay type: functional, Betapolyomavirus macacae;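 note: Confirmatory-stage PubChem screen for compounds that inhibit SV40 T antigen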
[6] = target: T2, Replicative DNA helicase DnaB (Mycobacterium tuberculosis, UniProt P9WMR3); assay: DnaB intein splicing inhibitors, dose response, biochemical, cell-free fluorescence (AID 449749); assay type: functional
T2 sequence (P9WMR3 whole entry): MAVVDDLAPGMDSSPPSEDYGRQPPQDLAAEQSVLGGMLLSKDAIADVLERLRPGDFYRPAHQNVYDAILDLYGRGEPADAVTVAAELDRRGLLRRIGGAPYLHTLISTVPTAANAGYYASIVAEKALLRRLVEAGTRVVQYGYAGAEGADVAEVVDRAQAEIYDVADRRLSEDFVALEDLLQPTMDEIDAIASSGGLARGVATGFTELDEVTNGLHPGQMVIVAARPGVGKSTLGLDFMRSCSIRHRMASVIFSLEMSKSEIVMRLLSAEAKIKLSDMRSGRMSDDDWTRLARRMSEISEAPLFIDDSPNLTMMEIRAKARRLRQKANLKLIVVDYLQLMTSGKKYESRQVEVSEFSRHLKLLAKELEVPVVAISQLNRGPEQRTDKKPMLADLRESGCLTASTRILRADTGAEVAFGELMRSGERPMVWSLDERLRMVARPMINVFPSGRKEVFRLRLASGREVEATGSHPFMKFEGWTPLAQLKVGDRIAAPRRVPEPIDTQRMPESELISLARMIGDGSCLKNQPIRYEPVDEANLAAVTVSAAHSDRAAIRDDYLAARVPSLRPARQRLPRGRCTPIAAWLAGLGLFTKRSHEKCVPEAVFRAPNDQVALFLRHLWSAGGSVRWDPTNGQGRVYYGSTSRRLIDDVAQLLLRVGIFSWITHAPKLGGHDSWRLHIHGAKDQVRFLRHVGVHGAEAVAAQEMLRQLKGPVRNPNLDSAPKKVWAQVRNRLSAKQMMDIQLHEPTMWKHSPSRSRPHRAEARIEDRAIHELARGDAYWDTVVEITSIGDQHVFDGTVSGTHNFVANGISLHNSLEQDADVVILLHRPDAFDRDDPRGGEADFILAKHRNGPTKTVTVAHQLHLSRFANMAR

[7] = target: T3, Protein RecA (Mycobacterium tuberculosis, UniProt P9WHJ3); assay: Fluorescence Cell-Free Homogeneous Dose Retest to Identify Inhibitors of RecA-Intein Splicing Activity. [Related pubchem assays (depositor defined):AID2097, AID2223, AID489010, AID492950]; assay type: functional
T3 sequence (P9WHJ3 whole entry): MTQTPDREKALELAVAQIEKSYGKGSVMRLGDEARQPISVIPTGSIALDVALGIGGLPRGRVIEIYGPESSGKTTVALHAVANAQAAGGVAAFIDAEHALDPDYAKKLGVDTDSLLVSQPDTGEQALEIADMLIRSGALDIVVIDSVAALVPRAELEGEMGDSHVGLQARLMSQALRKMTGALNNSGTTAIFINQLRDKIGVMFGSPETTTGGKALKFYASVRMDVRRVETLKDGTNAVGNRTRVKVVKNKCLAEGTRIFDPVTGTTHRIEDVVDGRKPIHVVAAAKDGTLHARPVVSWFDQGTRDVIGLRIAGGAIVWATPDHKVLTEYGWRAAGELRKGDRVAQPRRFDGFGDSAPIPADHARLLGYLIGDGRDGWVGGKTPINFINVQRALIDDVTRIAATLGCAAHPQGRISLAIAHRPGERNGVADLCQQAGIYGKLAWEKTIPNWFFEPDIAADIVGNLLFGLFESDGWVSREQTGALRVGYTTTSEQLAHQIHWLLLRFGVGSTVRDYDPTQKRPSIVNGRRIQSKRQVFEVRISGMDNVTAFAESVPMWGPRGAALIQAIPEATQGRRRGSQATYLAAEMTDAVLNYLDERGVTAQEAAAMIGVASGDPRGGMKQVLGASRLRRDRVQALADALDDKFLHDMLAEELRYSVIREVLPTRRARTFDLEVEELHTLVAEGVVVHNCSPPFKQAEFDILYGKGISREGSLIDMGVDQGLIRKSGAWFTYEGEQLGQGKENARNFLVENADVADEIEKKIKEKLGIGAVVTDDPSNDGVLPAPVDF

Sequence of Cytochrome P450 2D6 (P10635 whole entry): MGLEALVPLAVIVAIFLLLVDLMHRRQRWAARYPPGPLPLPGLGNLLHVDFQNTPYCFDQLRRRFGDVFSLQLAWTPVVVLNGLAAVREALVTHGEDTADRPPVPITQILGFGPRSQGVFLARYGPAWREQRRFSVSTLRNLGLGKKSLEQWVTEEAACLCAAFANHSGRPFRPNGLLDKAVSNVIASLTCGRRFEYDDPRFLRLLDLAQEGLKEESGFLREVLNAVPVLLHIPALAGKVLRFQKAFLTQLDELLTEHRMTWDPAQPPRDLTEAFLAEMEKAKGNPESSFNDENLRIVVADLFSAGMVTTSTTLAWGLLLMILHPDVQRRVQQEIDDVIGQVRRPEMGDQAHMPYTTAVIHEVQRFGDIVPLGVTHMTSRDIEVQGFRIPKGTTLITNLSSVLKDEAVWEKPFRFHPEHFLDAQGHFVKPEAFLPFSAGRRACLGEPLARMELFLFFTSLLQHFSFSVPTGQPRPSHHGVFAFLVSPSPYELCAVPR
Sequence of Large T antigen (P03070 whole entry): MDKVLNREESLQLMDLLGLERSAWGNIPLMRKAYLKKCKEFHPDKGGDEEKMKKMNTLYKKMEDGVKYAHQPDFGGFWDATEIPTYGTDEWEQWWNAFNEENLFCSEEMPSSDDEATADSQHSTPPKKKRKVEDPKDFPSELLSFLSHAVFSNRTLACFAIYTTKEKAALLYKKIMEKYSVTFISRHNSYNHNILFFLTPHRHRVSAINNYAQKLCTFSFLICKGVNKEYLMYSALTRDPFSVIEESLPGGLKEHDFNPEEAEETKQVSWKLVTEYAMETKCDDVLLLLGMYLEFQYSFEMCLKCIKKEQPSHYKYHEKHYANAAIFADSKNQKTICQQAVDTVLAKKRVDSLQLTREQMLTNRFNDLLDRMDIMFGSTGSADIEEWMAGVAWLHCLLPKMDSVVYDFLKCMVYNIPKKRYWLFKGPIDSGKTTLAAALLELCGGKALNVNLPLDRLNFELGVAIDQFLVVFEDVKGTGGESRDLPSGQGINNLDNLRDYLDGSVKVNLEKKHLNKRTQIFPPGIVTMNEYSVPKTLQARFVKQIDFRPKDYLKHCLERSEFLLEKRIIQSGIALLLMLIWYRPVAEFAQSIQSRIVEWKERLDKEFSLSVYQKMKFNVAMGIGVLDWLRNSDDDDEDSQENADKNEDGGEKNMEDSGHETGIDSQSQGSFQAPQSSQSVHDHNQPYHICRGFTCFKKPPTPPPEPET

Structure (SMILES): COc1ccc2[nH]c(C)c(CCN(Cc3cccs3)C(S)=Nc3cccc(F)c3)c2c1
- EC50 [1]: > 60 µM (not active)
- EC50 [2]: 3.35 µM (active)

Structure (SMILES): COC(=O)[C@@]1(Cc2ccccc2)[C@H]2c3cc(C(=O)N(C)C)n(Cc4ccsc4Br)c3C[C@H]2CN1C(=O)c1ccccc1
- AC50 [3]: 31.6 µM (inconclusive)

Structure (SMILES): Cc1ccccc1-n1nc2c(c1NC(=O)c1ccc(S(=O)(=O)N(C)C)cc1)CSC2
- AC50 [3]: 28.2 µM (inconclusive)

Structure (SMILES): CCOC(=O)/C(=N\Nc1ccccc1Cl)N1CCN(c2ccccc2OC)CC1
- EC50 [1]: 33.7 µM (active)
- EC50 [2]: 1.18 µM (active)

Structure (SMILES): CN1CCN(/N=C/c2ccc(-c3ccc([N+](=O)[O-])cc3Cl)o2)CC1
- EC50 [1]: > 60 µM (inconclusive)
- EC50 [2]: 0.474 µM (active)

Structure (SMILES): CCCN1CCC[C@@H]2Cc3nc(N)ncc3C[C@H]21 [QUINELORANE]
- AC50 [3]: 25.1 µM (inconclusive)

Structure (SMILES): C=C(C)COc1ccc(-c2ncncc2-c2ccccc2OC)c(O)c1
- EC50 [1]: > 60 µM (not active)
- EC50 [2]: 0.544 µM (active)

Structure (SMILES): Cc1ccc(S(=O)(=O)CCC(=O)c2cccc([N+](=O)[O-])c2)cc1
- EC50 [1]: > 60 µM (not active)
- EC50 [2]: 2.47 µM (active)

Structure (SMILES): CC(C)N1CCc2c(sc(NC(=O)c3ccc(S(=O)(=O)N4CCOCC4)cc3)c2C#N)C1
- EC50 [4]: 5.69 µM (active)

Structure (SMILES): Cc1n[nH]c(Nc2ccc(O)cc2)c1[N+](=O)[O-]
- IC50 [5]: 7.06 µM (active)

Structure (SMILES): CCN(C(=O)CSc1ncccc1C(=O)Oc1cccc([N+](=O)[O-])c1)c1cccc(C)c1
- AC50 [6]: 3.43 µM (active)
- EC50 [7]: > 380 µM (inconclusive)

Structure (SMILES): Cc1cc(C(=O)CN2C(=O)c3ccccc3C2=O)c(C)n1C1CC1
- AC50 [6]: > 380 µM (inactive)
- EC50 [7]: > 380 µM (inactive)

Structure (SMILES): COc1cc(CNc2ccc(N3CCOCC3)cc2)ccc1OCC(=O)NC(C)(C)C
- IC50 [5]: 4.16 µM (active)

Structure (SMILES): COc1ccc([C@@H](C)c2cc3c(cc2O)OCO3)cc1
- AC50 [3]: 3.98 µM (inconclusive)

Structure (SMILES): CCC(=O)Oc1ccc(C(=O)Nc2cccc(C(=O)c3ccccc3)c2)cc1
- AC50 [6]: 13.2 µM (active)
- EC50 [7]: 13.8 µM (active)

Structure (SMILES): CCOC(=O)N/N=C\c1ccc(OC(=O)c2ccco2)cc1
- AC50 [6]: 17 µM (active)
- EC50 [7]: 14.5 µM (active)

Structure (SMILES): COc1ccc(N2CCC(CN=C(S)Nc3c(C)cccc3C)C2)cc1 (stereo not given)
- EC50 [1]: > 60 µM (not active)
- IC50 [5]: 14.6 µM (active)
- EC50 [2]: 2.76 µM (active)

Structure (SMILES): CCCc1[nH][nH]c(=O)c1C(c1cccc(Cl)c1)C(C#N)C#N (stereo not given)
- AC50 [6]: > 380 µM (inactive)
- EC50 [7]: 0.755 µM (active)

Structure (SMILES): O=C1COC(c2ccccc2O)=NN1CCCN1CCCC1
- AC50 [3]: 3.16 µM (inconclusive)

Structure (SMILES): CC(C)(C)c1[nH]nc2c1C(c1ccoc1)C(C#N)=C(N)O2 (stereo not given)
- AC50 [6]: 20.4 µM (active)
- EC50 [7]: 3.58 µM (active)

Structure (SMILES): Cc1ccccc1-c1cncnc1Nc1ccc(F)cc1
- AC50 [3]: 39.8 µM (inconclusive)

Structure (SMILES): C=CCn1c(SCC(C)=O)nc2scc(-c3ccco3)c2c1=O
- IC50 [5]: 60.2 µM (active)

Structure (SMILES): COc1cc(/C=N/NC(=O)CC#N)cc(Br)c1O
- IC50 [5]: 9.57 µM (active)

Structure (SMILES): Nc1ccc(O)c2ccccc12
- AC50 [6]: 16 µM (active)
- EC50 [7]: 10.1 µM (active)

Structure (SMILES): CC(=O)Nc1ccc(NC(=O)CSc2ncc(C(=O)Nc3ccc(F)cc3)c(=O)n2C)cc1
- AC50 [6]: > 380 µM (inactive)
- EC50 [7]: > 380 µM (inconclusive)

Structure (SMILES): CC1=NNC(=O)C1C(c1ccccc1)C(C#N)C#N (stereo not given)
- AC50 [6]: 5.23 µM (active)
- EC50 [7]: 3.84 µM (active)

Structure (SMILES): O=C1/C(=C/c2ccncc2)SC(=S)N1Nc1ccccc1
- IC50 [5]: 12.7 µM (active)

Structure (SMILES): CCOc1ccc(C(c2c(C)n[nH]c2O)c2c(C)n[nH]c2O)cc1OCC
- AC50 [6]: 0.412 µM (active)
- EC50 [7]: 0.183 µM (active)

Structure (SMILES): Cn1c(=O)c2c(nc(S)n2Cc2ccc(Cl)cc2)n(C)c1=O
- IC50 [5]: 16.2 µM (active)

Structure (SMILES): COC(=O)c1c(NC(=O)CN2CCC3(O)CCCCC3C2c2ccccc2OC)sc(C)c1C (stereo not given)
- EC50 [4]: > 53 µM (inactive)

Structure (SMILES): Cc1ccc(-[n+]2cc(=O)o[nH]2)cc1
- AC50 [3]: 1.58 µM (inconclusive)

Structure (SMILES): COc1cc(/C=C2/C(=O)N(c3ccccc3)N=C2C)ccc1OS(=O)(=O)c1ccccc1
- AC50 [6]: 1.94 µM (active)
- EC50 [7]: 1.5 µM (active)

Structure (SMILES): CCN1C(=O)C(=CC=CN(C)c2ccccc2)SC1=S
- EC50 [4]: 6.59 µM (active)

Structure (SMILES): COc1cc(/C=N/NC(=O)C(=O)NCc2ccco2)ccc1O
- IC50 [5]: 12.9 µM (active)

Structure (SMILES): NS(=O)(=O)c1ccc(/N=C/c2c(O)oc3ccccc3c2=O)cc1
- AC50 [6]: > 380 µM (inactive)
- EC50 [7]: > 380 µM (inactive)

Structure (SMILES): N#C/C(=C(/O)c1ccc([N+](=O)[O-])s1)c1nc2ccccc2[nH]1
- EC50 [1]: 4.89 µM (active)
- EC50 [2]: 0.233 µM (active)

Structure (SMILES): CCN1C(=O)C2(C(C(=O)c3cc4ccccc4o3)=C(O)C(=O)N2CCCN(C)C)c2ccccc21 (stereo not given)
- IC50 [5]: 52.4 µM (active)

Structure (SMILES): Cc1ccc(-c2nn(-c3cc(N4CCNCC4)ccc3[N+](=O)[O-])c(=O)c3ccccc23)cc1
- EC50 [1]: > 60 µM (inconclusive)
- EC50 [2]: 2.04 µM (active)

Structure (SMILES): CCOC(=O)c1c(NC(=O)CSc2nnnn2C)sc(C)c1C
- AC50 [3]: 25.1 µM (inconclusive)

Structure (SMILES): COc1ccccc1/N=C/C=C1OC(C)(C)C(C)(C)O1
- EC50 [1]: > 60 µM (not active)
- EC50 [2]: 3.65 µM (active)

Structure (SMILES): C/C=C/C(=O)Nc1cccc(C2=NOC3(C2)C[C@@H](C(N)=O)N(C(=O)c2cc([N+](=O)[O-])cc([N+](=O)[O-])c2C)C3)c1 (stereo not given in full)
- EC50 [4]: > 53 µM (inactive)

Structure (SMILES): CC(C)c1ccc(C2C3=C(CC(C)(C)CC3=O)N=C3C2=C(O)c2ccccc23)cc1 (stereo not given)
- EC50 [1]: > 60 µM (not active)
- EC50 [2]: 1.68 µM (active)

Structure (SMILES): O=C(Oc1ccc(Br)cc1C(=S)N1CCCCC1)c1cc([N+](=O)[O-])cc([N+](=O)[O-])c1
- AC50 [6]: 23.9 µM (active)
- EC50 [7]: 1.71 µM (active)

Structure (SMILES): Cc1ccc(-n2nnnc2CCl)cc1
- AC50 [6]: 54.2 µM (active)
- EC50 [7]: 7.8 µM (active)

Structure (SMILES): COc1ccccc1CNc1ncncc1-c1cccnc1
- AC50 [3]: 20 µM (inconclusive)
